For the assay, the target named is Estrogen receptor (Rattus norvegicus) (UniProt P06211+Q62986). Briefly: Binding affinity for rat uterine estrogen receptor relative to estradiol. Type of assay: protein assay.
As to `Oc1ccc2c(c1)Cc1c-2c2ccccc2c2ccccc12`, the RBA was 0.01%. With `Oc1ccc(C2=C(c3ccc(O)cc3)c3ccc(O)cc3CC2)cc1`, the RBA was 140%. The compound `Oc1ccc2c(c1)CC(c1ccccc1)=C2c1ccccc1` came in with an RBA of 8.9%. `O=C1C(c2ccccc2)=C(c2ccccc2)c2ccc(O)cc21` displayed an RBA of 59%. The compound `O=C1C(c2ccc(O)cc2)=C(c2ccc(O)cc2)c2ccc(O)cc21` showed an RBA of 23%. Then `Oc1ccc(C2=C(c3ccc(O)cc3)c3ccc(O)cc3C2)cc1`, with 15%.

The values are drawn from ChEMBL document CHEMBL1124225, “2,3-Diarylindenes and 2,3-diarylindenones: synthesis, molecular structure, photochemistry, estrogen receptor binding affinity, and comparisons with related triarylethylenes” (J Med Chem, 1988).
